From US10035778B2, “Meta-azacyclic amino benzoic acid derivatives as pan integrin antagonists” (Saint Louis University, priority 2015, dated 2018)

What was measured:
[1] = IV cassette pharmacokinetic study in male Sprague-Dawley rats (Saint Louis University); type: in vivo; details: plasma; male Sprague-Dawley rat, 1 mg/kg IV cassette, sampling to 24 h; read-out: plasma t½ after 1 mg/kg IV bolus dose in rat (converted)
Method: (§1) A minimally sufficient volume of dimethylsulfoxide (DMSO) was added to each test compound to achieve solubilization. For intravenous (IV) delivery, compounds were then formulated as solutions in glycerol formal: saline (either 20:80 or 40:60 v/v) (Sigma Chemicals, St. Louis). For oral (PO) administration, compounds were formulated with 0.5% methylcellulose. Five to six compound solutions were combined into a singled mixed solution for IV and PO cassette administration with final DMSO concentrations <0.6% or <1.2%, for the IV and PO cassettes, respectively. Analytes were detected in test samples using an LC/MS/MS (liquid chromatography/mass spectrometry) system consisting of an LC-20AD pump (Shimadzu, Kyoto, Japan), an HTC PAL autosampler (Leap technologies, Carrboro, N.C.), and a Sciex API-4000 mass spectrometer in ESI mode (AB Sciex, Foster City, Calif.). An Amour C18 reverse phase column (Analytical Sales and Services, Pompton Plains, N.J.) was used for chromatographic separation.
(§2) Pharmacokinetic (PK) studies conducted at Saint Louis University used male Sprague-Dawley rats with an initial body weight of 200 to 220 g. IV PK studies were performed with the following compounds: Examples 1-3 and 5-17 and comparison compounds C12-C18, C29, and C30. Animals were allowed free access to food and water. Rats were individually housed and connected to jugular vein catheters. Each cassette formulation was administered intravenously to two rats (1 mL/kg body weight). Each cassette formulation contained 5-6 compounds at 1 mg/kg in either 20:80 or 40/60 glycerol formal/saline (v/v). Blood was collected manually via the catheter into lithium-heparin tubes at 0.017, 0.083, 0.5, 1, 2, 4, 6 and 24 hours post-dose. Animals were euthanized with CO2 at the end of the experiment.
(§3) Internal standard was added to all samples at 200 ng/mL (final), as well as 150 μL of acetonitrile. Plasma samples (50 μL total volume) were diluted with control nave rat plasma as appropriate to bring the sample measurement into the linear dynamic range of the standard curve. The samples were capped and mixed on a multi-plate vortexer for 5 minutes and centrifuged for 5 minutes at 3200 rmp. The supernant was transferred to 96-well sample plate and capped for LC/MS/MS analysis. Compounds were optimized and monitored for their respective MRM transitions. The mobile phases consisted of 0.1% formic acid (aqueous) and 100% acetonitrile (organic) with an Amour C18 reverse phase column (2.1×30 mm, 5 micron) at a flow rate of 0.35 mL/min. The starting phase was 10% acetonitrile for the 0.9 minutes then increased to 90% acetonitrile over 0.4 minutes, and was maintained for an additional 0.2 minutes before returning to 10% acetonitrile over 0.4 minutes. The 10% acetonitrile was held for an additional 1.6 minutes. Peak areas were integrated using Analyst 1.5.1 (AB Sciex, Foster City, Calif.).

[2] = biological target: Recombinant human integrin αvβ1 (Homo sapiens (Human), UniProt P05556+P06756); assay: Solid Phase Receptor Assay (SPRA) for αvβ1 function; type: binding; details: fibronectin-coated plate
Recombinant human integrin αvβ1, sequence (P06756 31-992): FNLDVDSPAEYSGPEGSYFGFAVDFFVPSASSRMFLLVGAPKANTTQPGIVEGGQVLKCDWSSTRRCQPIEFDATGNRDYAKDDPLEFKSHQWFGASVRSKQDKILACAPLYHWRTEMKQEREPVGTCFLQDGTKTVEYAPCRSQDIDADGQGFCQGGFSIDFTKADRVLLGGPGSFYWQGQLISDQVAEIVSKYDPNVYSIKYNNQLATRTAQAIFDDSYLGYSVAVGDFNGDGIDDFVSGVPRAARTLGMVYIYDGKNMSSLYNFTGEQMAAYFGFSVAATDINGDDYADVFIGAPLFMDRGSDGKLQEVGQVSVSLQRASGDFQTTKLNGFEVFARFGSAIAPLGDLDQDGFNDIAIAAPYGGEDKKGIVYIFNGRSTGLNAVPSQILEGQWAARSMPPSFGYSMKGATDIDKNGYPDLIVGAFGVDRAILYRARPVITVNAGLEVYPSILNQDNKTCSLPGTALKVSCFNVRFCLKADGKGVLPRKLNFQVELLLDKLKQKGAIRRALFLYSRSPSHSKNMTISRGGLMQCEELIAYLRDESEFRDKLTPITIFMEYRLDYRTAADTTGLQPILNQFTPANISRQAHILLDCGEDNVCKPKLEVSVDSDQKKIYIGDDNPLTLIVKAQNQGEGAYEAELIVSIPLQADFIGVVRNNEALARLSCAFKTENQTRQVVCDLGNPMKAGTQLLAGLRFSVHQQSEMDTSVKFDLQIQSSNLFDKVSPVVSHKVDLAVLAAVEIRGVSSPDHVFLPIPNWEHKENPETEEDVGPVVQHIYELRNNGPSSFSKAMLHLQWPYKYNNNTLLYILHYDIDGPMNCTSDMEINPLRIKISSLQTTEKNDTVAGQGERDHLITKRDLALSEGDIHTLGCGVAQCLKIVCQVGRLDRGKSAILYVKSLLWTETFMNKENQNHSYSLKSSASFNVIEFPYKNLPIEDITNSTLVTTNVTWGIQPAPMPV
Recombinant human integrin αvβ1, sequence (P05556 21-728): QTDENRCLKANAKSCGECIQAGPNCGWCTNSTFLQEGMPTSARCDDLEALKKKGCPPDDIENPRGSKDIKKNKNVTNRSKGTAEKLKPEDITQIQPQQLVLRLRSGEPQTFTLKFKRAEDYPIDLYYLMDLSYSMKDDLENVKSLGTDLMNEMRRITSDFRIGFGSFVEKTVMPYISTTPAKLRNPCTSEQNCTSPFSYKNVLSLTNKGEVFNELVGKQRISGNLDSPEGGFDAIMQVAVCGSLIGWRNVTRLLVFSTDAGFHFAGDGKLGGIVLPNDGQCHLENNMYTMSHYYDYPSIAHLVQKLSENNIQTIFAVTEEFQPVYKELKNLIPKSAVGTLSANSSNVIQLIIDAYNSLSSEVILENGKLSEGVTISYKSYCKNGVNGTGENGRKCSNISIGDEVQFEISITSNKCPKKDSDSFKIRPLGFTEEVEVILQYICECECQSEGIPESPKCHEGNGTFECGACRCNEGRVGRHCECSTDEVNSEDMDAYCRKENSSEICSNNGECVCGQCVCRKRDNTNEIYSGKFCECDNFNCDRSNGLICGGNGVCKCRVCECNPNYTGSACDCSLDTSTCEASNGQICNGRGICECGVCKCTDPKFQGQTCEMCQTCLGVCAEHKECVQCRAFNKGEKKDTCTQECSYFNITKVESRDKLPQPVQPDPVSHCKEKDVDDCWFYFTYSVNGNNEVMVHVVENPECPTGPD
Method: 2. Solid Phase Receptor Assay (SPRA) for αvβ1 Function
Purified human fibronectin (R&D Systems, 1918-FN) diluted to 5 μg/mL in TBS+ buffer (25 mM Tris pH 7.4, 137 mM NaCl, 2.7 mM KCl, 1 mM CaCl2, 1 mM MgCl2, 1 mM MnCl2) was added to wells (50 μL/well) of a 96-well half-well transparent microtiter plate (Greiner 675061) and incubated overnight at 4° C. Wells were washed 3 times with 150 μL TBS+ and 150 μL of blocking buffer (TBS+ with 1% bovine serum albumin, Sigma A7906) were added. The plate was incubated for 1 hr at 37° C. and then washed 3× with TBS+ buffer. Recombinant human integrin αvβ1 (R&D Systems. 6579-AV) was diluted to 2.0 μg/mL in TBS+/0.1% bovine serum albumin. Compounds were diluted 1:100 into the integrin solution and 50 μL added to empty wells of the washed fibronectin-coated plate according to a standard template with each sample repeated in triplicate. After incubation for two hours at room temperature, the plate was washed 3× with 150 μL of TBS+ buffer. To each well, 50 μL of biotinylated anti-αv antibody (R&D Systems, BAF1219) at 1 μg/mL in TBS+/0.1% BSA were added and the plate covered and incubated for 1 hr at room temperature. After washing the plate 3× with 150 μL of TBS+ buffer, 50 μL of streptavidin-conjugated horseradish peroxidase (R&D Systems, DY998) diluted in TBS+ blocking buffer were added to the wells and the plate incubated for 20 min at room temperature. The plate was washed 3× with TBS+ buffer followed by 50 μL of TMB substrate (Sigma, T4444) added to each well and the plate incubated for 20 min at room temperature. Plates were read by colorimetric detection at 650 nm wavelength using a Tecan Safire II plate reader. Concentration-response curves were constructed by non-linear regression (best fit) analysis, and IC50 values were calculated for each compound.

[3] = Oral (PO) cassette pharmacokinetic study in male Sprague-Dawley rats; type: in vivo; details: plasma; male Sprague-Dawley rat, 2 mg/kg oral gavage cassette in 0.5% methylcellulose; read-out: AUC (0-inf) after a 2 mg/kg PO dose in rat
Method: as §1, §2
Oral PK studies were conducted with the following compounds: Examples 1-3 and 5-17 and comparison compounds C12, C14-16 and C29-30. The PO cassette formulations were administered via oral gavage to two rats (10 mL/kg body weight) containing 5-6 compounds per cassette. The oral dose was administered at 2 mg/kg/compound in 0.5% methylcellulose. Blood collection time points were 0.25, 0.5, 1, 2, 4, 6 and 24 hours post-dose into lithium-heparin tubes. Animals were euthanized with CO2 at the end of the experiment.
as §3

half-life [1] [h]	IC50 [2] [nM]	AUC(0-inf) [3] [ng·h/mL]	SMILES
4.1	4 ± 2	13100	O=C(O)C[C@H](NC(=O)CNC(=O)c1cc(O)cc(NC2=NCC(O)CN2)c1)c1cc(Br)cc(OC(F)(F)F)c1 (stereo partly drawn) [Example 17, (3S)-3-(3-bromo-5-(trifluoromethoxy)phenyl)-3-(2-(3-hydroxy-5-((5-hydroxy-1,4,5,6-tetrahydropyrimidin-2-yl)amino)benzamido)acetamido)propanoic acid]
3.2	3 ± 2	6810	O=C(O)C[C@H](NC(=O)CNC(=O)c1cc(O)cc(NC2=NCC(O)CN2)c1)c1cc(Cl)cc(OC(F)(F)F)c1 (stereo partly drawn) [Example 16, (3S)-3-[3-chloro-5-(trifluoromethoxy)phenyl)-3-(2-(3-hydroxy-5-((5-hydroxy-1,4,5,6-tetrahydropyrimidin-2-yl)amino)benzamido)acetamido)propanoic acid]

Continued, compound first:

SMILES	half-life [1] [h]	IC50 [2] [nM]	AUC(0-inf) [3] [ng·h/mL]
O=C(O)C[C@H](NC(=O)CNC(=O)c1cc(O)cc(NC2=NCC(O)CN2)c1)c1cc(Br)cc(C(F)(F)F)c1 (stereo partly drawn) [Example 2, (3S)-3-(3-bromo-5-(trifluoromethyl)phenyl)-3-(2-(3-hydroxy-5-((5-hydroxy-1,4,5,6-tetrahydropyrimidin-2-yl)amino)benzamido)acetamido)propanoic acid]	9.1	2	19300
O=C(O)C[C@H](NC(=O)CNC(=O)c1cc(O)cc(NC2=NCC(O)CN2)c1)c1cc(Br)cc(Br)c1 (stereo partly drawn) [Example 1, (3S)-3-(3,5-dibromophenyl)-3-(2-(3-hydroxy-5-((5-hydroxy-1,4,5,6-tetrahydropyrimidin-2-yl)amino)benzamido)acetamido)propanoic acid]	20.2	2 ± 2	25000
Cc1cc(Cl)cc([C@H](CC(=O)O)NC(=O)CNC(=O)c2cc(O)cc(NC3=NCC(O)CN3)c2)c1 (stereo partly drawn) [Example 12, (3S)-3-[3-chloro-5-methyl-phenyl)-3-(2-(3-hydroxy-5-((5-hydroxy-1,4,5,6-tetrahydropyrimidin-2-yl)amino)benzamido)acetamido)propanoic acid]	13.7	4 ± 2	9110
O=C(O)C[C@H](NC(=O)CNC(=O)c1cc(O)cc(NC2=NCC(O)CN2)c1)c1cc(F)cc(Br)c1 (stereo partly drawn) [Example 13, (3S)-3-[3-bromo-5-fluoro-phenyl)-3-(2-(3-hydroxy-5-((5-hydroxy-1,4,5,6-tetrahydropyrimidin-2-yl)amino)benzamido)acetamido)propanoic acid]	11	1	13900
